Data taken from patent publication US20240172749A1, “USE OF NITRAPYRIN FOR IMPROVED PLANT GROWTH AND DEVELOPMENT” (Verdesian Life Sciences U.S., LLC, priority 2021, published 2024).

Columns and labels:
corn seedlings = assay: Greenhouse study of nitrapyrin as a biostimulant, shoot dry weight (biomass) of corn seedlings; type: in vivo; settings: applied at lower concentrations/label rates than typically employed as nitrification inhibitor (equal to or lower than 45.4 grams of nitrapyrin per acre)
Method: Com seeds were sown in 3-liter pots filled with a peat-vermiculite-perlite potting mix. Plants were grown for a period of 14 days in a greenhouse under standard conditions (28/32° C. night/day temperatures, 16-hour photoperiod, 55% relative humidity, 800 uMol/m2/s light intensity). Seven days after planting, treatments were applied using a 3×3 factorial treatment design (3 nitrapyrin rates×3 fertilizer treatments), with 4 biological replications per treatment combination. Plants were arranged in a completely randomized layout on the greenhouse bench. Nitrapyrin rates were: 0.0 g/plant (acetonitrile only), 0.0005 g/plant and 0.00073 g/plant, with each treatment unit dissolved in 5 mL of acetonitrile. Fertilizer treatments were: No fertilizer (water only), 15-5-15, and 6-24-6. Fertilizers were delivered at a rate of 100 ppm nitrogen, 3 times/week beginning on day 7 through day 14. Nitrapyrin treatments were given only once on day 7. Plants were monitored for signs of phytotoxicity during the experiment. On day 14, plants were harvested and dried in a forced-air oven. Dried plants were weighed individually for biomass. For results see FIG. 1.
A second experiment was performed with the same execution as described above, but with additional treatment groups and additional growing time (21 days). […]

[1] = compositions and/or formulations containing high amounts of water; cited from earlier work

Question: For Clc1cccc(C(Cl)(Cl)Cl)n1 [nitrapyrin, Nitrapyrin], which “biostimulant properties (improvement in plant growth and/or vigor)” value (corn seedlings) is on record?
Answer: can exhibit biostimulant properties

Question: What about the degradation of nitrapyrin [1] of the same compound?
Answer: rapid degradation
